Results: patent publication US20200147158A1, “SANGHUANGPORUS SANGHUANG STRAINS AND THEIR PRODUCTS, EXTRACTS AND APPLICATIONS” (FOOD INDUSTRY RESEARCH AND DEVELOPMENT INSTITUTE, priority 2018, published 2020)

Tests used:
Assay type in all cases: cell-based
ER-β = target: T1, ER-β (Homo sapiens, UniProt Q92731); assay: Evaluation of SERMs activity: ERβ/pERE-TA-SEAP reporter gene assay in transfected CV-1 cells; conditions: for ER Subtype Activity ER-β: ratio to untreated cells (Medium only); for ER-β/ER-α: ratio of relative ER-β to ER-α activity
T1 construct: expressed in transfected cells; host or cells: CV-1 (Cercopithecus aethiops kidney cells)
Protocol: (§1) CV-1 cells (Cercopithecus aethiops kidney cells) were grown at a confluence of 70-80% and were harvested in a cell suspension at a concentration of 5×10^4 cell/ml. The cell suspensions were added to each well (100 μl/well) of 96-well plate and the 96-well plate was incubated at 37° C., 5% CO2 incubator overnight.
(§2) 500 μl jetPRIME® buffer. 5 μg pERE-TA-SEAP and 5 μg ERα DNA plasmid (or ERβ DNA plasmid) were mixed in 1.5 ml eppendorf, then 20 μl jetPRIME® Transfection Reagent and 1.5 ml medium were added. The DNA mixtures were added to each well of 96-well plate (20 μl) and the 96-well plate was incubated at 37° C., 5% CO2 incubator for 4 hours.
(§3) The supernatant solutions were removed from each well of 96-well plate, then 90 μl charcoal-treated. FBS medium without phenol red were added to each well of 96-well plate. The samples to be tested were added to the wells of 96-well plate, which was incubated in 37° C., 5% CO2 incubator for 48 to 72 hours. The cells were harvested for the subsequent reporter gene assay and cell toxicity assay.
25 μl cell culture supernatants were collected from the 96-well plate and, then added to a new luminescence microplate, which was incubated at 65° C. water bath for 30 minutes to remove the activity endogenous alkaline phosphatase, and was placed on ice for 5 minutes and was centrifuged (1,000 rpm) for one minute. 25 μl PhosphaLight™ assay buffers were added at room temperature for 5 minutes and 25 μl CSPD (Disodium 3-(4-methoxyspiro {1,2-dioxetane-3,2′-(5′-chloro)tricyclo [3.3 1.13,7]decan}-4-yl phenyl phosphate)-containing Phospha-Light™ reaction buffers were added at room temperature for 20 minutes. The luminescence microplate was placed in Victor™ Light 1420 Luminescence Counter and the SEAP enzyme activities were measured.

ER-α = target: T2, ER-α (Homo sapiens, UniProt P03372); assay: Evaluation of SERMs activity: ERα/pERE-TA-SEAP reporter gene assay in transfected CV-1 cells; conditions: 25 μg/mL, ratio to untreated cells (Medium only)
T2 construct: expressed in transfected cells; host or cells: CV-1 (Cercopithecus aethiops kidney cells)
T2 sequence (P03372 1-595): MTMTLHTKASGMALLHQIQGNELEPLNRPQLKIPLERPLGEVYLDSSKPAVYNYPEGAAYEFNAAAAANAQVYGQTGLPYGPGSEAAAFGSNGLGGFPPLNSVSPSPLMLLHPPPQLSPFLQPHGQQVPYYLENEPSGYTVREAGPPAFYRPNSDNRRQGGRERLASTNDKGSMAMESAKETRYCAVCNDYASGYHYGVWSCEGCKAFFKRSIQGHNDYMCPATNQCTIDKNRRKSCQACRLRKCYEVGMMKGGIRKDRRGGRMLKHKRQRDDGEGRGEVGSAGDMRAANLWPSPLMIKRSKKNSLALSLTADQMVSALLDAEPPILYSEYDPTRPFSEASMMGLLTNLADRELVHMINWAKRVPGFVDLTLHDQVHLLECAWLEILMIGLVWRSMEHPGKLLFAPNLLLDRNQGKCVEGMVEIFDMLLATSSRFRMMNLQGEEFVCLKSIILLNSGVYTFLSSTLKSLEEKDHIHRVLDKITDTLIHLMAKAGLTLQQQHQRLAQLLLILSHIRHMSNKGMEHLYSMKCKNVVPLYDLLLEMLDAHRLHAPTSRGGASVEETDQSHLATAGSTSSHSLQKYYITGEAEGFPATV
Protocol: as §1, §2, §3
(§4) 25 μl cell culture supernatants were collected from the 96-well plate and, then added to a new luminescence microplate, which was incubated at 65° C. water bath for 30 minutes to remove the activity endogenous alkaline phosphatase, and was placed on ice for 5 minutes and was centrifuged (1,000 rpm) for one minute.

Estrogen Receptor (ER) = target: T3, Estrogen Receptor (ER) (Homo sapiens, UniProt P03372); assay: ER total activity assay (pERE-TA-SEAP reporter in MCF-7 cells); conditions: for ER activity (FIG. 1, in words): 2 μg/ml, 5 μg/ml and 10 μg/ml; for ER activity compared with 17-β Estradiol (positive control), FIG. 1, in words: MCF-7 cells
T3 construct: endogenous in cells; host or cells: MCF-7
T3 sequence (P03372 1-595): T2 sequence (P03372 1-595)
Protocol: ER is a ligand-activated enhancer protein that is a member of the steroid/nuclear receptor superfamily. […] Secreted alkaline phosphatase (SEAP) is a reporter widely used to study promoter activity or gene expression.
The 1 ml 0.05% trypsin-EDTA solution was added to 80% confluence (on Day 5, if cells were in log phase) of MCF-7 cells in a T75 flask at 37° C. for 5 minutes. After the cells were detached, 5 ml charcoal-treated FBS-containing medium were added to suspend the cells. The charcoal-treated FBS-containing PBS medium were added 2 ml cell suspensions to the final volume of 10 ml of a mixture. The mixture was dispensed into each well (100 μl/well, 2×10^4 cells/well) of a 96-well plate by 8-channel pipette, and the 96-well plate was placed at 37° C. and 5% CO2 overnight to obtain about 70% confluence.
To transfect cells to express the ERE, a transfection mixture was prepared. TransIT®-LT1 Transfection Reagent is a broad spectrum reagent that provides high efficiency plasmid DNA delivery in many mammalian cell types including primary cells. Specifically, 1 ml Opti-MEM®, 14 μl TransIT®-LT1 Transfection Reagent and 5 μg pERE-TA-SEAP were added into a 1.5 ml Eppendorf and let the transfection mixture stand for 15-30 minutes.
Transfection mixture containing TransIT-DNA was dispensed into each well (10 μl/well) of a 96-well plate, and the 96-well plate was placed at 37° C. and 5% CO2 for 24 hours. The supernatants were removed from the 96-well plate using 8-channel pipette.
as §4

T1 sequence (Q92731 whole entry, species assumed): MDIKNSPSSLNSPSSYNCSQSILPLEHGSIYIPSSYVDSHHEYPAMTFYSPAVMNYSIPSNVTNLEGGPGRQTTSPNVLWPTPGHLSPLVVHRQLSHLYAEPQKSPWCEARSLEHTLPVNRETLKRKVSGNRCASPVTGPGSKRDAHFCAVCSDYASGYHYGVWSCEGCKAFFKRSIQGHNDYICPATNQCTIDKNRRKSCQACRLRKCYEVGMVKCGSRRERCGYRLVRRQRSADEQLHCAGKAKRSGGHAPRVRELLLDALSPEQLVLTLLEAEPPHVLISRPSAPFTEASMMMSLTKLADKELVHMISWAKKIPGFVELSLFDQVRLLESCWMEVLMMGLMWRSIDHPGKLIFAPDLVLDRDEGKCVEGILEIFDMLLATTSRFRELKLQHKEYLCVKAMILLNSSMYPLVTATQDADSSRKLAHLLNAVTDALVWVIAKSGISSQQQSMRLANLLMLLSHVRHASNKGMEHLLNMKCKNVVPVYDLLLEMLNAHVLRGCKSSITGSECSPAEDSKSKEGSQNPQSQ

C[C@]12CC[C@@H]3c4ccc(O)cc4CC[C@H]3[C@@H]1CC[C@@H]2O [17-β Estradiol (E2), 17-β Estradiol, reference compound]
ER Subtype Activity ER-β (ER-β; 200 nM): 3.70 ± 0.45

C=C1CCCC(C)(C)C1CC/C(C)=C/C(=O)O (stereo not shown) [Compound 1, (E)-5-(2,2-dimethyl-6-methylenecyclohexyl)-3-methylpent-2-enoic acid]
ER Subtype Activity ER-α (ER-α): 1.21 ± 0.53
ER activity (FIG. 1, in words) (Estrogen Receptor (ER)): significant ER activity
ER activity compared with 17-β Estradiol (positive control), FIG. 1, in words (Estrogen Receptor (ER)): superior ER activity over 17-β Estradiol
ER-β versus ER-α activity (in words) (ER-β): superior ER-β activity over ER-α activity
ER-β/ER-α (ER-β; 25 μg/mL): 3.1
ER Subtype Activity ER-β (ER-β; 25 μg/mL): 3.80 ± 0.11

C=C1CCCC(C)(C)[C@@H]1/C=C/C(C)=C/C(=O)O [Compound 2, (+)-(2E,-4E)-5-((S)-2,2-dimethyl-6-methylenecyclohexyl)-3-methylpenta-2,4-dienoic acid]
ER Subtype Activity ER-α (ER-α): 1.16 ± 0.16
ER activity (FIG. 1, in words) (Estrogen Receptor (ER)): significant ER activity
ER activity compared with 17-β Estradiol (positive control), FIG. 1, in words (Estrogen Receptor (ER)): superior ER activity over 17-β Estradiol
ER-β versus ER-α activity (in words) (ER-β): superior ER-β activity over ER-α activity
ER-β/ER-α (ER-β; 25 μg/mL): 2.2
ER Subtype Activity ER-β (ER-β; 25 μg/mL): 2.53 ± 0.77
